Consider four molecules from patent US12297182B2, “Compositions comprising an urolithin compound” (Amazentis SA, priority 2015, dated 2025).

SMILES strings stand for the structures.

Details of series [1]: species or system male Sprague-Dawley rats. The note with it: rat, in vivo, po. Here is the method: The solutions for gavage were prepared as follows: 35 mg of urolithin A powder was diluted in 7 ml of 15% DMSO, 0.5% methyl cellulose/0.25% Tween 80 in water, resulting in a 5 mg/ml fine suspension. The DMSO was obtained from BDH, methyl cellulose was obtained from Sigma, and Tween 80 was obtained from Sigma-Aldrich.
Blood was collected from the rats by jugular vein cannulation at different time points, and urolithin A was quantified in the plasma to determine its pharmacokinetic profile following oral gavage of Sample #1, Sample #2, and Sample #3. The study was repeated on three rats for each sample. […]

For series [2], the system named is 22 month old C57BL/6J old mice. The experiment in a line: Treadmill endurance test in old mice fed a high protein diet with or without Urolithin A. To be noted: Urolithin A 50 mg/kg/day in high protein diet, 6 weeks, normalized over basal values, compared to mice receiving only a protein diet; no exercise regimen. It is filed as in vivo. From the text:
To mimic age related muscle loss in humans, an experimental animal model was setup in old mice. The control diet designed to be used in the experimental study was a high protein diet that would be analogous to a clinically recommended high protein diet in elderly humans at risk of muscle loss. The diet was formulated to improve the performance of old animals that consume them. The high protein diet has a better balance of essential nutrients (amino acids, vitamins and minerals) and is supplemented with 200 gr casein per kg of diet, instead of 140 gr of casein in the regular maintenance diet (Reeves PG, J. Nutr. 1997, 127(5) 838S-841S). Casein proteins are nutritionally complete, highly digestible proteins with high amino scores that contain all amino acids in amounts sufficient to support maintenance of all body proteins. Urolithin A was admixed to the high protein diet at a level of 0.57 g per kg of diet. Both the diets were isocaloric. 22 month old C57BL/6J old mice that would be equivalent to a 65 yr to 75 yr old elderly human were treated with either the high protein diet alone or a high protein diet containing Urolithin A. Both the diets contained in addition to the casein protein, essential nutrient for optimal muscle function such as L-cysteine and vitamins and mineral mix. The level of Urolithin A in the diet results in a dose of 50 mg/kg/day delivered to mice. […]

A further series has as its system myotubes. The note with it: in vitro; cited from earlier work.

Turning to `O=c1oc2cc(O)ccc2c2ccc(O)cc12` [Urolithin A], the “bioavailability (in words)” value in series [1] is recorded as “increase in bioavailability”. Moreover, in series [2], the “increase in running distance” value amounted to 42% and the “increase in running time” value is recorded as 28%.

For `O=c1oc2cc(O)ccc2c2ccccc12` [Urolithin B], in the series on myotubes, the “effect on mean diameter of myotubes” value is recorded as “increased”.

For the molecule `O=c1oc2cc(O)ccc2c2ccc(O)cc12` [Sample #3, Urolithin A], in series [1] (male, Sprague-Dawley, 25 mg/kg), the “relative increase in the AUC” value is given as 26%.

Take `O=c1oc2cc(O)ccc2c2ccc(O)cc12` [Sample #2, Urolithin A]: in series [1] (male, Sprague-Dawley, 25 mg/kg), the “fold increase in the Cmax” value was 2.16 fold, the “relative increase in the AUC” value is listed as 28% and the “relative increase in the Cmax” value turned out to be 116%.
